Experimental data: ChEMBL document CHEMBL4342426, “Structure-activity relationship of 4-azaindole-2-piperidine derivatives as agents against Trypanosoma cruzi” (Bioorg Med Chem Lett, 2020)

Columns and labels:
cells = conditions: Homo sapiens, MRC-5 SV2, 72 h
Description: (§1) Cytotoxicity against human MRC5 SV2 cells assessed as reduction in cell viability incubated for 3 days by fluorimetry

Macrophage = experiment: cells; conditions: Mus musculus, 72 h
Description: (§2) Cytotoxicity against mouse peritoneal Macrophage cells assessed as reduction in cell viability incubated for 3 days by fluorimetry

in vitro [1] = conditions: human, MRC5 SV2 cells
Description: as §1

in vitro [2] = conditions: human, liver microsomes
Description: Metabolic stability in human liver microsomes assessed as intrinsic clearance at 0.5 uM incubated for 30 mins by LC-MS/MS analysis

in vitro [3] = conditions: mouse, liver microsomes
Description: Metabolic stability in mouse liver microsomes assessed as intrinsic clearance at 0.5 uM incubated for 30 mins by LC-MS/MS analysis

physchem = conditions: buffer, pH 7.4
Description: Lipophilicity, logD of compound at pH 7.4 by HPLC analysis

in vitro [4] = conditions: mouse, peritoneal macrophages
Description: as §2

in vitro [5] = conditions: PAMPA
Description: Effective permeability of compound by PAMPA assay

in vitro [6] = conditions: mouse, liver microsomes; remark: listed apart in the source
Description: Metabolic stability in mouse liver microsomes assessed as fraction unbound at 0.5 uM incubated for 30 mins by LC-MS/MS analysis

Trypanosoma cruzi = experiment: microbe, parasite or virus in culture; conditions: Tulahuen CL2, MRC-5 SV2, 168 h
Description: Antitrypanosomal activity against Trypanosoma cruzi Tulahuen CL2 amastigotes infected in human MRC5 SV2 cells incubated for 7 days by chlorophenol red beta-D-galactopyranoside substrate based spectrophotometric assay

Trypanosoma brucei = experiment: microbe, parasite or virus in culture; conditions: Squib 427, 72 h
Description: Antitrypanosomal activity against Trypanosoma brucei Squib 427 assessed as reduction in parasite growth incubated for 72 hrs by resazurin dye based fluorimetric analysis

[7] = tested on: Trypanosoma brucei rhodesiense; experiment: microbe, parasite or virus in culture; conditions: STIB900, 72 h
Description: Antiprotozoal activity against Trypanosoma brucei rhodesiense STIB900 trypomastigotes incubated for 72 hrs by resazurin dye based fluorimetric analysis

Leishmania infantum = experiment: microbe, parasite or virus in culture; conditions: for IC50: MHOM/MA(BE)/67/ITMAP263, 120 h; for IC90: MHOM/MA(BE)/67/ITMAP263, in Mus musculus, 120 h
Description: Antileishmanial activity against amastigote stage of Leishmania infantum MHOM/MA(BE)/67/ITMAP263 infected in mouse peritoneal macrophage assessed as parasite growth inhibition incubated for 5 days by Giemsa staining based assay

| SMILES | IC50 (cells) | IC50 (Macrophage) | IC90 at 72 h (in vitro [1]) | CLint scaled at 0.5 h, 0.5 µM (in vitro [2]) | microsomal CLint at 0.5 h, 0.5 µM (in vitro [2]) | CLint scaled at 0.5 h, 0.5 µM (in vitro [3]) | microsomal CLint at 0.5 h, 0.5 µM (in vitro [3]) | logD (physchem) | IC90 at 72 h (in vitro [4]) | Papp (in vitro [5]) | fraction unbound at 0.5 h, 0.5 µM (in vitro [6]) | IC50 (Trypanosoma cruzi) | IC90 (Trypanosoma cruzi) | IC50 (Trypanosoma brucei) | IC90 (Trypanosoma brucei) | IC50 [7] | IC90 [7] | IC50 (Leishmania infantum) | IC90 (Leishmania infantum) |
| --- | --- | --- | --- | --- | --- | --- | --- | --- | --- | --- | --- | --- | --- | --- | --- | --- | --- | --- | --- |
| CC(C)(C)OC(=O)N1CCCC(c2cn3cccnc3n2)C1 (centres undefined) | 64 µM | 64 µM | 64 µM | 49 mL/min/kg | 38 µL/min/mg | 3290 mL/min/kg | 861 µL/min/mg | 2.58 | 64 µM | 7.69 ×10⁻⁶ cm/s | 0.836 | 64 µM | 64 µM | 64 µM | 64 µM | 64 µM | 64 µM | 64 µM | 64 µM |
| Cc1nc(C)c(C(=O)N2CCCC(c3cc4ncccc4[nH]3)C2)o1 (centres undefined) | 64 µM | 64 µM | 64 µM | < 31.2 mL/min/kg | < 23 µL/min/mg | 314 mL/min/kg | 78.8 µL/min/mg | 2.15 | 64 µM | 1.56 to 2.14 ×10⁻⁶ cm/s | 0.801 | 64 µM | 64 µM | 64 µM | 64 µM | 64 µM | 64 µM | 64 µM | 64 µM |
| O=C(c1ccccc1)N1CCCC(c2cc3ncccn3n2)C1 (centres undefined) | 64 µM | 64 µM | 64 µM | 468 mL/min/kg | 91.3 µL/min/mg | 19200 mL/min/kg | 1270 µL/min/mg | 2.3 | 64 µM | 16.5 ×10⁻⁶ cm/s | 0.211 | 64 µM | 64 µM | 64 µM | 64 µM | 64 µM | 64 µM | 64 µM | 64 µM |
| O=C(c1cc(C(F)(F)F)n[nH]1)N1CCCC(c2cc3ncccc3[nH]2)C1 (centres undefined) | 64 µM | 64 µM | 64 µM | 278 mL/min/kg | 127 µL/min/mg | 832 mL/min/kg | 128 µL/min/mg | 3.07 | 64 µM | 0.881 ×10⁻⁶ cm/s | 0.493 | 64 µM | 64 µM | 64 µM | 64 µM | 64 µM | 64 µM | 64 µM | 64 µM |
| Nc1cc(C2CCCN(C(=O)c3ccccc3)C2)[nH]n1 (centres undefined) | 64 µM | 64 µM | 64 µM | < 36.7 mL/min/kg | < 23 µL/min/mg | < 108 mL/min/kg | < 23 µL/min/mg | 1.09 | 64 µM | 1.42 ×10⁻⁶ cm/s | 0.684 | 64 µM | 64 µM | 64 µM | 64 µM | 64 µM | 64 µM | 64 µM | 64 µM |
| COc1ccc2[nH]c(C3CCCN(C(=O)c4ccc(F)cc4)C3)cc2n1 (centres undefined) | 64 µM | 64 µM | 64 µM | 35 mL/min/kg | 26.4 µL/min/mg | 593 mL/min/kg | 151 µL/min/mg | 3.39 | 64 µM | 14.4 ×10⁻⁶ cm/s | 0.815 | 64 µM | 64 µM | 64 µM | 64 µM | 19.6 µM | 30.6 µM | 64 µM | 64 µM |
| O=C(c1ccc(C(F)(F)F)nc1)N1CCCC(c2cc3ncccc3[nH]2)C1 (centres undefined) | 64 µM | 64 µM | 64 µM | 50.3 mL/min/kg | 27.9 µL/min/mg | 132 mL/min/kg | 24.9 µL/min/mg | 2.68 | 64 µM | 0.887 ×10⁻⁶ cm/s | 0.6 | 64 µM | 64 µM | 64 µM | 64 µM | 64 µM | 64 µM | 64 µM | 64 µM |
| Nc1cc(C2CCCN(C(=O)c3cc(C(F)(F)F)no3)C2)[nH]n1 (centres undefined) | 64 µM | 64 µM | 64 µM | < 26.7 mL/min/kg | < 23 µL/min/mg | 175 mL/min/kg | 54.3 µL/min/mg | 1.77 | 64 µM | 3.76 ×10⁻⁶ cm/s | 0.991 | 64 µM | 64 µM | 64 µM | 64 µM | 64 µM | 64 µM | 64 µM | 64 µM |
| Cn1nccc1C(=O)N1CCCC(c2cc3ncccc3[nH]2)C1 (centres undefined) | 64 µM | 64 µM | 64 µM | 33.5 mL/min/kg | 27.5 µL/min/mg | 115 mL/min/kg | 31.9 µL/min/mg | 1.8 | 64 µM | 1.03 to 1.37 ×10⁻⁶ cm/s | 0.89 | 64 µM | 64 µM | 64 µM | 64 µM | 64 µM | 64 µM | 64 µM | 64 µM |
| O=C(c1ccccc1)N1CCCC(c2cn3cccnc3n2)C1 (centres undefined) | 64 µM | 64 µM | 64 µM | < 31.7 mL/min/kg | < 23 µL/min/mg | 338 mL/min/kg | 127 µL/min/mg | 1.71 | 64 µM | 2.75 ×10⁻⁶ cm/s | 0.805 | 64 µM | 64 µM | 64 µM | 64 µM | 64 µM | 64 µM | 64 µM | 64 µM |
| O=C1c2ccccc2CN1CCc1cc2ncccc2[nH]1 | 64 µM | 64 µM | 64 µM | 119 mL/min/kg | 69.1 µL/min/mg | 1090 mL/min/kg | 213 µL/min/mg | 2.19 | 64 µM | 0.504 ×10⁻⁶ cm/s | 0.626 | 64 µM | 64 µM | 64 µM | 64 µM | 64 µM | 64 µM | 64 µM | 64 µM |
